Source: ChEMBL document CHEMBL4507276 (2021)

Columns and labels:
[1] = molecular target: Sodium channel regulatory subunit beta-1 (Rattus norvegicus) (UniProt Q00954); experiment: NA+/SITE2/R Cerep selectivity data (BI); settings: Compound concentration 20.0 uM
[2] = molecular target: Sigma non-opioid intracellular receptor 1 (Homo sapiens) (UniProt Q99720); experiment: SIGMA/NS Cerep selectivity data (BI); settings: filed as agonist, Compound concentration 20.0 uM
[3] = molecular target: Eukaryotic elongation factor 2 kinase (Homo sapiens) (UniProt O00418); experiment: EEF2K Invitrogen selectivity data (BI); settings: Compound concentration 3.0 uM
Sequence of Eukaryotic elongation factor 2 kinase (Homo sapiens) (O00418 whole entry): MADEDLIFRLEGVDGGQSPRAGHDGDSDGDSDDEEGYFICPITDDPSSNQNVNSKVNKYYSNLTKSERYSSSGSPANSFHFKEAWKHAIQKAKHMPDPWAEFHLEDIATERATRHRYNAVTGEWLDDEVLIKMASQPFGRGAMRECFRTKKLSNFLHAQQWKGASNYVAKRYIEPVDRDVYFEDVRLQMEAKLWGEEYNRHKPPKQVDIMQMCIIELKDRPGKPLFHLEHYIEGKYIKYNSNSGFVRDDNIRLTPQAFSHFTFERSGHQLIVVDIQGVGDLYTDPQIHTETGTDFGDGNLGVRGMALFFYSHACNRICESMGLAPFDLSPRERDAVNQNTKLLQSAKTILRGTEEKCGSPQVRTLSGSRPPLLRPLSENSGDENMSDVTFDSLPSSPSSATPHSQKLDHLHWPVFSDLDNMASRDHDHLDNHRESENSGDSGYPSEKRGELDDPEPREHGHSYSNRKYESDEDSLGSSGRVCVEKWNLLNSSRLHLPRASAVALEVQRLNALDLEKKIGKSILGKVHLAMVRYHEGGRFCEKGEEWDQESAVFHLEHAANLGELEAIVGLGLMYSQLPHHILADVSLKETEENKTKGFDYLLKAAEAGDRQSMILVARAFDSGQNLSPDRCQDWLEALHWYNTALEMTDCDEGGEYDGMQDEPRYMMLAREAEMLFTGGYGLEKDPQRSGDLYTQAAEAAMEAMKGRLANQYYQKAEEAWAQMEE

[4] = molecular target: CDK9/Cyclin K (Homo sapiens) (UniProt P50750+O75909); experiment: CDK9_CYCLINK Invitrogen selectivity data (BI); assay type: protein-complex assay; settings: Compound concentration 3.0 uM
[5] = molecular target: Melatonin receptor type 1A (Homo sapiens) (UniProt P48039); experiment: MT1 (ML1A) Cerep selectivity data (BI); settings: Compound concentration 20.0 uM
Sequence of Melatonin receptor type 1A (Homo sapiens) (P48039 whole entry): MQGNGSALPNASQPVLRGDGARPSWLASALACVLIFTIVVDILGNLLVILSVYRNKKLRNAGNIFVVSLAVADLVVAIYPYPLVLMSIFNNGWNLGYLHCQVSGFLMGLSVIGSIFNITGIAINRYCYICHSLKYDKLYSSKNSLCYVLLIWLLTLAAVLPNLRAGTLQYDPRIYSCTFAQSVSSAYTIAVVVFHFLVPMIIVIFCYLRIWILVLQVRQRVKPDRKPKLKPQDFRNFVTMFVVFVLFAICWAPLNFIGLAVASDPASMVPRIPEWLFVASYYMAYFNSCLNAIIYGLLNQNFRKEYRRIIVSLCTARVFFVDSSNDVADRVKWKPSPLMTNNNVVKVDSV

[6] = molecular target: Serine/threonine-protein kinase 25 (Homo sapiens) (UniProt O00506); experiment: STK25 Invitrogen selectivity data (BI); settings: Compound concentration 3.0 uM
Sequence of Serine/threonine-protein kinase 25 (Homo sapiens) (O00506 whole entry, looked up): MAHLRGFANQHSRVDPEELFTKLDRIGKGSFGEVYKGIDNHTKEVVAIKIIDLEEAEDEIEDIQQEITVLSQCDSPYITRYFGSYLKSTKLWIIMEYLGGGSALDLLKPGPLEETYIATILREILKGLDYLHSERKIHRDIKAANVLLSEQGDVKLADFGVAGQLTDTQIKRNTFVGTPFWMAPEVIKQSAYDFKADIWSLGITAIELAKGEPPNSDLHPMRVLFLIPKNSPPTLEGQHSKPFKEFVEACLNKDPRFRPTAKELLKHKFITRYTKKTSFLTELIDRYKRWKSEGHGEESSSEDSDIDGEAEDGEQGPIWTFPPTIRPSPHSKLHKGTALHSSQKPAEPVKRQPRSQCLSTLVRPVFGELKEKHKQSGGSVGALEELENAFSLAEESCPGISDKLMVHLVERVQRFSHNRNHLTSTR

[7] = molecular target: G protein-coupled receptor kinase 5 (Homo sapiens) (UniProt P34947); experiment: GRK5 Invitrogen selectivity data (BI); settings: Compound concentration 3.0 uM
Sequence of G protein-coupled receptor kinase 5 (Homo sapiens) (P34947 whole entry, looked up): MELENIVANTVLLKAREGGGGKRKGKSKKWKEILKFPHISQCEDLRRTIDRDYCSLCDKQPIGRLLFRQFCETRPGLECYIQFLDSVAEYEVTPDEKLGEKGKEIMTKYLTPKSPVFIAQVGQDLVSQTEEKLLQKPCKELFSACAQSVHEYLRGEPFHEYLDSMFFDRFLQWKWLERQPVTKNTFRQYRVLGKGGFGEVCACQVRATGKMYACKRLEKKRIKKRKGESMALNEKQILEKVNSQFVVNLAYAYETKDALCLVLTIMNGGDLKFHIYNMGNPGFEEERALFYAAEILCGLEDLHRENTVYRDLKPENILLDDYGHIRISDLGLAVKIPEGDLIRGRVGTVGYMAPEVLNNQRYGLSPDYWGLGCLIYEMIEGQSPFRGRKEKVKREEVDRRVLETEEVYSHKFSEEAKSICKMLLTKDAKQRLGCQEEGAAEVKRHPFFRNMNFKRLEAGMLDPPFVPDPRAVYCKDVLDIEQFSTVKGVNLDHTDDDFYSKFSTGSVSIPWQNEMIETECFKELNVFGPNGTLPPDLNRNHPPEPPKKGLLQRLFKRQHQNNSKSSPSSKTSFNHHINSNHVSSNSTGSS

[8] = molecular target: B1 bradykinin receptor (Homo sapiens) (UniProt P46663); experiment: B1/H Eurofins-Panlabs selectivity data (BI); settings: Compound concentration 10.0 uM
Sequence of B1 bradykinin receptor (Homo sapiens) (P46663 whole entry): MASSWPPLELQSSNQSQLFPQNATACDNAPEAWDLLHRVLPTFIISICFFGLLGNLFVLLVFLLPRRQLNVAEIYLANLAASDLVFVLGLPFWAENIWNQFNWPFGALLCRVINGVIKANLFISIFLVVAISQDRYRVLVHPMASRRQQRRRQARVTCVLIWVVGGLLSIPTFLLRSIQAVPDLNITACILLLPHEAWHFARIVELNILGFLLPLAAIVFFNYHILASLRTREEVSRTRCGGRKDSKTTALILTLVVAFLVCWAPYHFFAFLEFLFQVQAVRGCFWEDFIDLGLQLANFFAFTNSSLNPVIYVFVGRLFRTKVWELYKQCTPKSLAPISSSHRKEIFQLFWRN

[9] = molecular target: Serine/threonine-protein kinase Chk2 (Homo sapiens) (UniProt O96017); experiment: CHEK2 Invitrogen selectivity data (BI); settings: Compound concentration 3.0 uM
Sequence of Serine/threonine-protein kinase Chk2 (Homo sapiens) (O96017 whole entry): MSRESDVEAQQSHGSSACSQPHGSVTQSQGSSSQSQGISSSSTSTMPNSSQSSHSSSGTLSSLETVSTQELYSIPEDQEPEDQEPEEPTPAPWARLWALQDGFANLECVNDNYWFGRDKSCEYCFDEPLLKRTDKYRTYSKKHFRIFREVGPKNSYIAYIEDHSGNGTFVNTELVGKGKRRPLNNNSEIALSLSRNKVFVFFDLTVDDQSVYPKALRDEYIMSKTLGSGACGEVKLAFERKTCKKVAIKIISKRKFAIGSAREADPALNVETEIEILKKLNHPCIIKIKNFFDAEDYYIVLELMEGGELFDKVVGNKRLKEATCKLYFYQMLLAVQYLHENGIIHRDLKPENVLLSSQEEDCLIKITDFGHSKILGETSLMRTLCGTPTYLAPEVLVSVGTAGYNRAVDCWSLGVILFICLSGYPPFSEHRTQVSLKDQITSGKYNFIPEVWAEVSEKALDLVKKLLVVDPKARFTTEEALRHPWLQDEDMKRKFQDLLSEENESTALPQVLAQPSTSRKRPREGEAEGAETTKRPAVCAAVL

[10] = molecular target: T1, Serine/threonine-protein kinase TAO2 (Homo sapiens) (UniProt Q9UL54); experiment: TAOK2 Invitrogen selectivity data (BI); settings: Compound concentration 3.0 uM
T1 sequence (whole entry): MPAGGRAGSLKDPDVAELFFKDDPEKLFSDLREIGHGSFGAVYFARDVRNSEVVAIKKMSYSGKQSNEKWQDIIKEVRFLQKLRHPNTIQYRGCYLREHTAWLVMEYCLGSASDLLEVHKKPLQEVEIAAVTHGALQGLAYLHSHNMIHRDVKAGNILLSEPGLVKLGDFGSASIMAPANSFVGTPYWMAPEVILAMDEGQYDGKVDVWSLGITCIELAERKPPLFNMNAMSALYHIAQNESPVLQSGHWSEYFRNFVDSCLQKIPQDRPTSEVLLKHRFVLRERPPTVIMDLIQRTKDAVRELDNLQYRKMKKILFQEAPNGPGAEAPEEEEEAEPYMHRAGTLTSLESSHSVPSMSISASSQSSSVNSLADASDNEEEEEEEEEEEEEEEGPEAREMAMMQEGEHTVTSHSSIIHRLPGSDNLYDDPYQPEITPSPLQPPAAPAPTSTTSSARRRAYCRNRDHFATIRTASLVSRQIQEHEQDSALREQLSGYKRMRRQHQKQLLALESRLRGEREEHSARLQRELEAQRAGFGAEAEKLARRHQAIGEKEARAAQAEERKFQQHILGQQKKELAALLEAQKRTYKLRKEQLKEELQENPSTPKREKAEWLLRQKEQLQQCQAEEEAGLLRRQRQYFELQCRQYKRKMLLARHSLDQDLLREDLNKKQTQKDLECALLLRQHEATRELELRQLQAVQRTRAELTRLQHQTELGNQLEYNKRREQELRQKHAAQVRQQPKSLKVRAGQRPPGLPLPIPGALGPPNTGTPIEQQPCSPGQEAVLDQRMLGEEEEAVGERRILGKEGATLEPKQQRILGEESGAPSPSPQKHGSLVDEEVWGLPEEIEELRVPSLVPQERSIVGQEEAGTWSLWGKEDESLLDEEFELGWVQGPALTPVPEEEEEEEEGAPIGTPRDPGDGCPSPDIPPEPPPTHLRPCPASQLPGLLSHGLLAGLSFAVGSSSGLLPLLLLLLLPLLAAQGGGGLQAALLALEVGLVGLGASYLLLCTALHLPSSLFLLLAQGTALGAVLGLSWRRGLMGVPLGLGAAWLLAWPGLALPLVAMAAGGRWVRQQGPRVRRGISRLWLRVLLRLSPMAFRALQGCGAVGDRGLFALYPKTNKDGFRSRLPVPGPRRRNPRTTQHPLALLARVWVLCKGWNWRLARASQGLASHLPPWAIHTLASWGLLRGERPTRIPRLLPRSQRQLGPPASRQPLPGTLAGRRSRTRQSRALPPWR

[11] = molecular target: Death-associated protein kinase 3 (Homo sapiens) (UniProt O43293); experiment: DAPK3 Invitrogen selectivity data (BI); settings: Compound concentration 3.0 uM
Sequence of Death-associated protein kinase 3 (Homo sapiens) (O43293 whole entry, looked up): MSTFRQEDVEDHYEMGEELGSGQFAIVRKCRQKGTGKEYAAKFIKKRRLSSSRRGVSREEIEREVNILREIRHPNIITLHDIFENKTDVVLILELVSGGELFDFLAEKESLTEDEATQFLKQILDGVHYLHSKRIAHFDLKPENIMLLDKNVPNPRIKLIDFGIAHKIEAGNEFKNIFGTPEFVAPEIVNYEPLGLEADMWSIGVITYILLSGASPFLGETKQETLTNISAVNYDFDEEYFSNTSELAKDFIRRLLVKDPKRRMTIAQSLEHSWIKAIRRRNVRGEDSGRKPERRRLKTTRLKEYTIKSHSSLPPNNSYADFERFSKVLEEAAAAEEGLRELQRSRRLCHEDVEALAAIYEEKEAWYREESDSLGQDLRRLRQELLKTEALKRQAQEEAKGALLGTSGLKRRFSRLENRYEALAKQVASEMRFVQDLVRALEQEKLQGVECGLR

[12] = molecular target: T2, Rhodopsin kinase GRK7 (Homo sapiens) (UniProt Q8WTQ7); experiment: GRK7 Invitrogen selectivity data (BI); settings: Compound concentration 3.0 uM
T2 sequence (whole entry): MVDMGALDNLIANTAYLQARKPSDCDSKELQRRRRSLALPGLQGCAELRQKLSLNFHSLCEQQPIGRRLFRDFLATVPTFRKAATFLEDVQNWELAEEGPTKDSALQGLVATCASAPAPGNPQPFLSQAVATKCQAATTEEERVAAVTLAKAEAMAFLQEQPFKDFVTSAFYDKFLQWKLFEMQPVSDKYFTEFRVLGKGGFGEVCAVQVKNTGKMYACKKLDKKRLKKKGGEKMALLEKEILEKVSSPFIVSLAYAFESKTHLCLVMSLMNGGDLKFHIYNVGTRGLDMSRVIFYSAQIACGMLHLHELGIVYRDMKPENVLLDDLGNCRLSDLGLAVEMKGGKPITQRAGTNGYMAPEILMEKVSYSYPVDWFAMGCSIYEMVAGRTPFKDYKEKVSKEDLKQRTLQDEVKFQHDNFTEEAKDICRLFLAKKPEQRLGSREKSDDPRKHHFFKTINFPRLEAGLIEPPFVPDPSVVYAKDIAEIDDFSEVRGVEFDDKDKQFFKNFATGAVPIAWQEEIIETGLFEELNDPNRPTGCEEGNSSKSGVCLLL

[13] = molecular target: Endothelin-1 receptor (Homo sapiens) (UniProt P25101); experiment: ETA/H Cerep selectivity data (BI); settings: Compound concentration 20.0 uM
Sequence of Endothelin-1 receptor (Homo sapiens) (P25101 whole entry): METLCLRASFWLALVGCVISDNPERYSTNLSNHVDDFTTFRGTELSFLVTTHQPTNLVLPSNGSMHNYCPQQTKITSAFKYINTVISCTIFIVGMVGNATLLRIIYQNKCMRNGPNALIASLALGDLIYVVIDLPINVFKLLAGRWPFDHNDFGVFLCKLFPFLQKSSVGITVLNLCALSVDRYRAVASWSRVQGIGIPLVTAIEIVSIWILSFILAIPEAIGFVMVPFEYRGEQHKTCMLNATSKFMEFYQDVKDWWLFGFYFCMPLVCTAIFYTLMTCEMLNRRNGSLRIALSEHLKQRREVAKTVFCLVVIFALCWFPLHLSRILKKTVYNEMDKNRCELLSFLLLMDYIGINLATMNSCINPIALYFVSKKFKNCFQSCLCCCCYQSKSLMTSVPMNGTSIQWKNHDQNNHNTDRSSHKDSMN

[14] = tested on: Tyrosine-protein kinase ABL1 (Homo sapiens), P00519 [Y253F]; experiment: ABL1 Y253F Invitrogen selectivity data (BI); settings: Compound concentration 3.0 uM

Measured: residual activity

Sequence of Sigma non-opioid intracellular receptor 1 (Homo sapiens) (Q99720 whole entry): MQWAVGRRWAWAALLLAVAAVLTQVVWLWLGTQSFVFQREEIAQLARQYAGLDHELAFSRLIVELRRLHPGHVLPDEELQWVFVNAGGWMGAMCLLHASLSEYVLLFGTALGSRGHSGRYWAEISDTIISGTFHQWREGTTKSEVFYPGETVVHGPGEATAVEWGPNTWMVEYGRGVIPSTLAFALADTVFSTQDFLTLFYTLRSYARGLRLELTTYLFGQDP
Sequence of Sodium channel regulatory subunit beta-1 (Rattus norvegicus) (Q00954 whole entry): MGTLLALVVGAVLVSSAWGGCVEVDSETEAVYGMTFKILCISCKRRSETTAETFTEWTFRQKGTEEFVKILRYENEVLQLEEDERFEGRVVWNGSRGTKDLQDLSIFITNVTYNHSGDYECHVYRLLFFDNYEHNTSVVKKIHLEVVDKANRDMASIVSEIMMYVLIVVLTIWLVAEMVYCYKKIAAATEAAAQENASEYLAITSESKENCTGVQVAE

CN(C)C(=O)Cn1cc(-c2nc([C@@](C)(c3ccc(-c4cnc(N)nc4)cc3)C3CC3)no2)cn1 [BI 665915]
inactive: [1] 107% | [2] 99% | [3] 93.5% | [4] 96% | [5] 91% | [6] 106% | [7] 100% | [8] 112% | [9] 99% | [10] 100% | [11] 99% | [12] 101% | [13] 102% | [14] 80%
